# According to PubChem BioAssay AID1963849 (Molecular Pharmacology Branch, DTP, NCI, 2024):
# Tested on: 299254-011-R-J1-PDC complex spheroid viability
# Assay: Anticancer human tumor 299254-011-R-J1-PDC patient-derived melanoma cell line growth inhibition [POLQ]
# Settings: for IC50: curve of first compound; for viability, T/C: stronger effect = lower value
# Outline: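 Growth inhibition in 3D: complex spheroids (tumor PDC, HUVEC, MSC) treated with POLQ inhibitor combinations; where Cmax unknown, highest tested concentration 10 microM, except SN-38 at 1 microM.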
# [1] = second compound 0.0316 µM, first compound 0.0316 µM
# [2] = second compound 0.0316 µM, first compound 0.1 µM
# [3] = second compound 0.0316 µM, first compound 0.316 µM
# [4] = second compound 0.0316 µM, first compound 1 µM
# [5] = second compound 0.0316 µM, first compound 3.16 µM
# [6] = second compound 0.0316 µM, first compound 10 µM
# [7] = second compound 0.1 µM, first compound 0.0316 µM
# [8] = second compound 0.1 µM, first compound 0.1 µM
# [9] = second compound 0.1 µM, first compound 0.316 µM
# [10] = second compound 0.1 µM, first compound 1 µM
# [11] = second compound 0.1 µM, first compound 3.16 µM
# [12] = second compound 0.1 µM, first compound 10 µM
# [13] = second compound 0.316 µM, first compound 0.0316 µM
# [14] = second compound 0.316 µM, first compound 0.1 µM
# [15] = second compound 0.316 µM, first compound 0.316 µM
# [16] = second compound 0.316 µM, first compound 1 µM
# [17] = second compound 0.316 µM, first compound 3.16 µM
# [18] = second compound 0.316 µM, first compound 10 µM
# [19] = second compound 1 µM, first compound 0.0316 µM
# [20] = second compound 1 µM, first compound 0.1 µM
# [21] = second compound 1 µM, first compound 0.316 µM
# [22] = second compound 1 µM, first compound 1 µM
# [23] = second compound 1 µM, first compound 3.16 µM
# [24] = second compound 1 µM, first compound 10 µM
# [25] = second compound 3.16 µM, first compound 0.0316 µM
# [26] = second compound 3.16 µM, first compound 0.1 µM
# [27] = second compound 3.16 µM, first compound 0.316 µM
# [28] = second compound 3.16 µM, first compound 1 µM
# [29] = second compound 3.16 µM, first compound 3.16 µM
# [30] = second compound 3.16 µM, first compound 10 µM
# [31] = second compound 10 µM, first compound 0.0316 µM
# [32] = second compound 10 µM, first compound 0.1 µM
# [33] = second compound 10 µM, first compound 0.316 µM
# [34] = second compound 10 µM, first compound 1 µM
# [35] = second compound 10 µM, first compound 3.16 µM
# [36] = second compound 10 µM, first compound 10 µM
# 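Further: spheroids exposed to drugs for one week before measurement.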
# 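Wherever viability, T/C is given: percent viability relative to DMSO vehicle control taken as 100%.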
smiles,measurement,setting,value
CCCS(=O)(=O)Nc1ccc(F)c(C(=O)c2c[nH]c3ncc(-c4ccc(Cl)cc4)cc23)c1F + Nc1ccc(C#CCN(C(=O)Cc2ncc(C(F)(F)F)cc2C(F)(F)F)c2ccc(F)cc2)nn1,IC50,second compound 0.0316 µM,9.62 µM
same,IC50,second compound 0.1 µM,9.01 µM
same,IC50,second compound 0.316 µM,9.95 µM
same,IC50,second compound 1 µM,8.98 µM
same,IC50,second compound 3.16 µM,> 10 µM
same,IC50,second compound 10 µM,> 10 µM
same,"viability, T/C",[1],109%
same,"viability, T/C",[2],128%
same,"viability, T/C",[3],122%
same,"viability, T/C",[4],120%
same,"viability, T/C",[5],108%
same,"viability, T/C",[6],47.8%
same,"viability, T/C",[7],92.7%
same,"viability, T/C",[8],117%
same,"viability, T/C",[9],119%
same,"viability, T/C",[10],110%
same,"viability, T/C",[11],104%
same,"viability, T/C",[12],44.6%
same,"viability, T/C",[13],97.5%
same,"viability, T/C",[14],93.5%
same,"viability, T/C",[15],112%
same,"viability, T/C",[16],111%
same,"viability, T/C",[17],129%
same,"viability, T/C",[18],49.7%
same,"viability, T/C",[19],97.3%
same,"viability, T/C",[20],99.2%
same,"viability, T/C",[21],106%
same,"viability, T/C",[22],121%
same,"viability, T/C",[23],122%
same,"viability, T/C",[24],43.8%
same,"viability, T/C",[25],108%
same,"viability, T/C",[26],140%
same,"viability, T/C",[27],140%
same,"viability, T/C",[28],101%
same,"viability, T/C",[29],106%
same,"viability, T/C",[30],50.7%
same,"viability, T/C",[31],94.8%
same,"viability, T/C",[32],98.6%
same,"viability, T/C",[33],109%
same,"viability, T/C",[34],102%
same,"viability, T/C",[35],98.5%
same,"viability, T/C",[36],57%
CC1COCCN1c1cc(C2(S(C)(=N)=O)CC2)nc(-c2ccnc3[nH]ccc23)n1 (centres undefined) + Cc1cccc(N(C)C(=O)C2C(O)CCN2c2nc(C)cc(C(F)(F)F)c2C#N)c1,IC50,second compound 0.0316 µM,6.32 µM
same,IC50,second compound 0.1 µM,5.32 µM
same,IC50,second compound 0.316 µM,7 µM
same,IC50,second compound 1 µM,6.25 µM
same,IC50,second compound 3.16 µM,4.22 µM
same,IC50,second compound 10 µM,2.67 µM
same,"viability, T/C",[1],105%
same,"viability, T/C",[2],99%
same,"viability, T/C",[3],87.2%
same,"viability, T/C",[4],79.6%
same,"viability, T/C",[5],66.4%
same,"viability, T/C",[6],39.4%
same,"viability, T/C",[7],108%
same,"viability, T/C",[8],103%
same,"viability, T/C",[9],91.1%
same,"viability, T/C",[10],80.1%
same,"viability, T/C",[11],61%
same,"viability, T/C",[12],36.7%
same,"viability, T/C",[13],99.1%
same,"viability, T/C",[14],97.4%
same,"viability, T/C",[15],91.6%
same,"viability, T/C",[16],96.6%
same,"viability, T/C",[17],66%
same,"viability, T/C",[18],42.8%
same,"viability, T/C",[19],93%
same,"viability, T/C",[20],92.5%
same,"viability, T/C",[21],104%
same,"viability, T/C",[22],94.3%
same,"viability, T/C",[23],70.9%
same,"viability, T/C",[24],35.6%
same,"viability, T/C",[25],90.4%
same,"viability, T/C",[26],92.7%
same,"viability, T/C",[27],100%
same,"viability, T/C",[28],92.3%
same,"viability, T/C",[29],54.4%
same,"viability, T/C",[30],36.8%
same,"viability, T/C",[31],93%
same,"viability, T/C",[32],92.7%
same,"viability, T/C",[33],93.8%
same,"viability, T/C",[34],63.7%
same,"viability, T/C",[35],52.7%
same,"viability, T/C",[36],37.9%
